Reference: publication PMC11541931, “The structure and function of P5A-ATPases” (Nature Communications, 2024)

Target: T1, CtSpf1 (Thermochaetoides thermophila, UniProt G0S4Z4)
T1 construct: gene CTHT_0032200; full length, last two C-terminal arginines removed; C-terminal TEV site-GGGGS-GFP-His10, tag kept; made in S. cerevisiae PAP1500; in nanodiscs
Assay: cryo-EM structure, […] A
Details: 1 mM ADP with 2 mM AlF4-, Mg2+; MSP1E3D1 nanodisc, pH 7.5; nucleotide-binding site, E1P-ADP state

T1 sequence (G0S4Z4 entry or part of it): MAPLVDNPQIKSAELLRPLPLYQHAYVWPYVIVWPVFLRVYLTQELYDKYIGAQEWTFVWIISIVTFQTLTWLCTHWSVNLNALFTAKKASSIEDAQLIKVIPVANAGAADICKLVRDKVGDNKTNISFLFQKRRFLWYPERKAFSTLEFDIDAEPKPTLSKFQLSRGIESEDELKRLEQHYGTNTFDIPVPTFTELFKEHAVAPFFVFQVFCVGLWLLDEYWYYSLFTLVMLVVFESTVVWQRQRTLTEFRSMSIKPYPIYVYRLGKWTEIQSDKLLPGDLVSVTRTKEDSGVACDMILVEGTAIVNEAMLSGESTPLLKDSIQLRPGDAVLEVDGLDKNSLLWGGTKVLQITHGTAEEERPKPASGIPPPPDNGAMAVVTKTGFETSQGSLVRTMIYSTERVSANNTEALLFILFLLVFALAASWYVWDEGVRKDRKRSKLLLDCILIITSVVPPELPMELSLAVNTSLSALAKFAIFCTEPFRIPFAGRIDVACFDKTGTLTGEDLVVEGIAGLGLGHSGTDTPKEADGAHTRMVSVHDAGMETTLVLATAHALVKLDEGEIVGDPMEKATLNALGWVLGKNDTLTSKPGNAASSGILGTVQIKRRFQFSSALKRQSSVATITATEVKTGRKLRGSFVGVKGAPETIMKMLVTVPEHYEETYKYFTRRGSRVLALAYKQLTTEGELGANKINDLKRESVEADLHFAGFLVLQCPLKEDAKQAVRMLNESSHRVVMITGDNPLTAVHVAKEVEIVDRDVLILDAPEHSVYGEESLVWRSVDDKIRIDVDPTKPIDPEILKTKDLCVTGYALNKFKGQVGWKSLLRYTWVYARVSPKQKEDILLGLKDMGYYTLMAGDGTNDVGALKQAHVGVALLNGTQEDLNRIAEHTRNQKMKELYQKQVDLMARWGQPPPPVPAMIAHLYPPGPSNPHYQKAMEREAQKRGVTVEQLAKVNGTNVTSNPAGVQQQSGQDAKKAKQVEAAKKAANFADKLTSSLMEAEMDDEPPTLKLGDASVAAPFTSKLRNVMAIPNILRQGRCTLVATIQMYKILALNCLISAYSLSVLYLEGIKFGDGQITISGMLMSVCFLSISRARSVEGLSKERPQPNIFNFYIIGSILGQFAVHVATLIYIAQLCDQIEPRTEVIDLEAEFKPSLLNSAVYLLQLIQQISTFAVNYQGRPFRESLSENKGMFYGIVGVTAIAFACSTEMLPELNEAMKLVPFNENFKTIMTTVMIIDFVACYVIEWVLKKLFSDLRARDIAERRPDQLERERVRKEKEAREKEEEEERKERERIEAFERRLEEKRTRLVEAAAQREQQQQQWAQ

Q: How did the “cryo-EM structure, 3.4 A” value turn out when `Nc1ncnc2c1ncn2[C@@H]1O[C@H](COP(=O)(O)OP(=O)(O)O)[C@@H](O)[C@H]1O` [ADP] was run?
A: We retrieved two separate maps with ADP-AlF4^− bound
